Test results from patent publication EP4813993A1, “COMPOUND, PREPARATION METHOD THEREFOR, AND USE THEREOF” (Sichuan Kelun Pharmaceutical Research Institute Co., Ltd., priority 2023, dated 2025).

Columns and labels:
Nav1.8 channels = biological target: T1, Nav1.8 channels (Homo sapiens, UniProt Q9Y5Y9); assay: Manual patch-clamp, current of stably overexpressed Nav1.8 channels (resting state voltage program); type: cell-based; conditions: for inhibition at 0.001 µM: concentration of 1 nM, read-out: Inhibition rate %
T1 construct: expressed in transfected cells
T1 sequence (Q9Y5Y9 whole entry): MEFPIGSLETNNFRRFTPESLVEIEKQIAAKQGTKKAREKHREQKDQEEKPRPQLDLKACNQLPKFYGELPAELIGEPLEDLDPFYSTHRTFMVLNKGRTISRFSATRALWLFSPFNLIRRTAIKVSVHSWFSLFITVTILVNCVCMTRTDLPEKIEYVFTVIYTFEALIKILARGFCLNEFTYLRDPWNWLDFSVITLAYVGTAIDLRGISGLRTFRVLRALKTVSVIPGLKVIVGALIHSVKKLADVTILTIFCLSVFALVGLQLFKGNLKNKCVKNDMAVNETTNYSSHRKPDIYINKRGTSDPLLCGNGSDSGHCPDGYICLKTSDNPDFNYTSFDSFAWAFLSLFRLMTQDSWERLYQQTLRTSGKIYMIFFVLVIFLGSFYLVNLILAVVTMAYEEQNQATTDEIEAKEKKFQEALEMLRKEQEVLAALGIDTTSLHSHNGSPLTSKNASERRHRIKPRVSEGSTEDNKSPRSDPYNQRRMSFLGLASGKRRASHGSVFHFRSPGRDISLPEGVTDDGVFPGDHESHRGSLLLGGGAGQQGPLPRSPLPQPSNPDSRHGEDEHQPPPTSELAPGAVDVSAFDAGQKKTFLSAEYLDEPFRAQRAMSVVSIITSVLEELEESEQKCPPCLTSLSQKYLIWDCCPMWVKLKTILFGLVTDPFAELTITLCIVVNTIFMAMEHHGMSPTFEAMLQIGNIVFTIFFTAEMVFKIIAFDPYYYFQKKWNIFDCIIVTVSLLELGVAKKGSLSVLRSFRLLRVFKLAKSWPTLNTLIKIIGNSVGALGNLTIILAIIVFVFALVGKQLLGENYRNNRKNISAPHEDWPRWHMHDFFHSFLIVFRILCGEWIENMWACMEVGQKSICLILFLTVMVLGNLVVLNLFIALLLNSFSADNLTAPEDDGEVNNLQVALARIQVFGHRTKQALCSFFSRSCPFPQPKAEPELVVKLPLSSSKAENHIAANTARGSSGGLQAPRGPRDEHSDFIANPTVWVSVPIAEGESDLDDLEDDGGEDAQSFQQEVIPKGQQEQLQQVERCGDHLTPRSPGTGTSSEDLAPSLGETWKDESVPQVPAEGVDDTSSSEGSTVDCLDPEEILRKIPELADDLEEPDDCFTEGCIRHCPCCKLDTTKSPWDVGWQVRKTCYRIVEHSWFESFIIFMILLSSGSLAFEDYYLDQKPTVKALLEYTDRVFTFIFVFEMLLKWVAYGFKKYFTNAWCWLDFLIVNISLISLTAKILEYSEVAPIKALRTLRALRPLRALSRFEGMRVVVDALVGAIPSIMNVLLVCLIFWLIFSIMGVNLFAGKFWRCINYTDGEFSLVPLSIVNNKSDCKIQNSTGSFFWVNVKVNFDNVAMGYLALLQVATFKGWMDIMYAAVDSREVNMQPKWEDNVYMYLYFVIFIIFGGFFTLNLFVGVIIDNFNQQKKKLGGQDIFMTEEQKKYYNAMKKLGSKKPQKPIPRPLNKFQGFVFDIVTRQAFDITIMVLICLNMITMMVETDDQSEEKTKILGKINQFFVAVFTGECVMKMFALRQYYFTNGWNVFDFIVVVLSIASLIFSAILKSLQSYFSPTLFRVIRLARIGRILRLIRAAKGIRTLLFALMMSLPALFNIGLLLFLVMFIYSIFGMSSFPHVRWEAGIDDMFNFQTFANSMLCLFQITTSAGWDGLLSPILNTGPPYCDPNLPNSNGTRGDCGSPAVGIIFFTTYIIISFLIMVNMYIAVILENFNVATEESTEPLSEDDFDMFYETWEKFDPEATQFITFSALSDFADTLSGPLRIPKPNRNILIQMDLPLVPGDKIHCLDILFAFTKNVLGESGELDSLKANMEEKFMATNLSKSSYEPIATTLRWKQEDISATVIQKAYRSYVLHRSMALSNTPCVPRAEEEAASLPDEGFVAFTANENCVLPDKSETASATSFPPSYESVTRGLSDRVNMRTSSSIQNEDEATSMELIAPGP
In short: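 Whole-cell manual patch clamp on cells stably overexpressing Nav1.8, held at -120 mV and stepped to 0 mV for 50 ms every 20 s (resting-state protocol). Compounds were perfused in ascending concentrations, each for 5 min or until stable; block of peak current was calculated at steady state.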

[1] = Tissue distribution study (dorsal root ganglia) in ICR mice; type: in vivo; conditions: male, mouse, oral administration 20 mg/kg
Description: Experimental Example 4: Tissue distribution study of compounds in ICR mice
(§1) Experimental animals: ICR mice, male, 6-8 weeks old.
(§2) Compound preparation: 5% (final preparation volume) of DMSO was added to dissolve the test compound, and then 10% (final preparation volume) of Cremophor EL and 85% Saline were sequentially added.
Experimental design: The test compounds were administered to ICR mice as a single dose via oral administration (20 mg/kg; n = 3, 3 time points). Blood samples were collected at 0.25 h, 2 h, and 12 h after oral administration, followed by sacrifice of the animals. Dorsal root ganglia (DRG) were collected, rinsed with ice-cold normal saline to remove residual blood, blotted dry with absorbent paper, and stored at -70 °C for analysis.
Sample test: The concentrations of the compound drugs in dorsal root ganglia were determined by the LC-MS/MS method.

[2] = Pharmacokinetic study in ICR mice; type: in vivo; conditions: male, mouse, plasma
Description: Experimental Example 3: Pharmacokinetic study of compounds in ICR mice
as §1, §2
The injection group was given free access to food and water. The oral group was fasted overnight (> 12 h) with free access to water, and was fed 4 h after administration. Blood samples were collected from the jugular vein of ICR mice at the following time points: 5 min, 15 min, 0.5 h, 1 h, 2 h, 4 h, 8 h, and 24 h after injection administration; 15 min, 0.5 h, 1 h, 2 h, 4 h, 6 h, 8 h, and 24 h after oral administration. The collected blood samples were anticoagulated, placed in an ice bath, and then centrifuged for 5 min to separate plasma. The plasma was stored at -70 °C for analysis.
Sample test: The concentrations of the designated compound drugs in plasma were determined by the LC-MS/MS method; the main pharmacokinetic parameters were calculated using the Winnolin 8.3 non-compartmental model. Pharmacokinetic test results of some compounds of the present disclosure in ICR mice

formalin pain model = assay: Rat formalin pain model; type: in vivo, SD rats
Description: Experimental Example 10: Pharmacodynamic effect study of compounds in rat formalin pain model
Experimental animals: SD rats, male, 180-200 g.
Compound preparation: 5% (final preparation volume) of DMSO was added to dissolve the test compound, and then 10% (final preparation volume) of Cremophor EL and 85% Saline were sequentially added; an appropriate amount of Etoricoxib was weighed, 5% (final preparation volume) of DMSO was added to dissolve the test compound, and then 5% (final preparation volume) of HS-15 and 90% Saline were sequentially added; the tramadol injection was diluted with normal saline to the desired concentration.
Each group consisted of 10 animals, and 50 µL of a 5% formalin solution was injected using a microsyringe into the right plantar region.
2. Administration and test
Based on different pharmacokinetic properties of the drugs, the administration was performed at 0 min, 60 min, and 120 min before modeling. After injection of the formalin, the number of pain responses in the rats was observed. […] Spontaneous pain responses were observed once every 5 min, and the number of pain responses in the rats within 1 min was counted, with a total observation duration of 60 min. Inhibition rate = (number of pain responses in control group - number of pain responses in administration group)/number of pain responses in control group × 100%.
Table 12. Administration information of compounds of the present disclosure in rat formalin model

With `COc1c([C@@H]2C[C@](C)(C(F)(F)F)S[C@H]2C(=O)Nc2ccc3nnnn3c2)ccc(F)c1F` [Compound 202-A, (2R,3S,5R)-3-(3,4-difluoro-2-methoxyphenyl)-5-methyl-N-(tetrazolo[1,5-a]pyridin-6-yl)-5-(trifluoromethyl)tetrahydrothiophene-2-carboxamide] the inhibition at 0.001 µM (Nav1.8 channels) was 86.9%, the concentration at 0.25 h [1] was 710 ng/g and the concentration at 2 h [1] was 7200 ng/g. The concentration at 12 h [1] was 2720 ng/g, the AUC(0-inf) ([2]; Oral administration, 10 mg/kg) was 12.5 µg·h/mL and the AUC(0-inf) ([2]; iv, Injection (i.v.), 2 mg/kg) was 2.05 µg·h/mL.
Work on `COc1c([C@@H]2C[C@](C)(C(F)(F)F)S[C@H]2C(=O)Nc2cccc(S(N)(=O)=O)c2)ccc(F)c1F` [Compound 223-A, (2R,3S,5R)-3-(3,4-difluoro-2-methoxyphenyl)-5-methyl-N-(3-sulfamoylphenyl)-5-(trifluoromethyl)tetrahydrothiophene-2-carboxamide] yielded an IC50 (Nav1.8 channels) of 0.02 nM, a concentration at 0.25 h [1] of 511 ng/g and a concentration at 2 h [1] of 2360 ng/g. For the same compound, the concentration at 12 h [1] was 635 ng/g, the AUC(0-inf) ([2]; Oral administration (p.o.), 20 mg/kg) was 50.6 µg·h/mL and the AUC(0-inf) ([2]; iv, Injection (i.v.), 2 mg/kg) was 7.2 µg·h/mL.
With `COc1cccc(C2(O)CCCCC2CN(C)C)c1` (stereo not shown) [Tramadol] the “Number of pain responses 0 min” value (formalin pain model; SD rats, 10 mg/kg i.v. immediately before 5% formalin, 0 min, Mean + SD, n = 10) was 31.9±15.0, the “Number of pain responses 10 min” value (formalin pain model; SD rats, 10 mg/kg i.v. immediately before 5% formalin, 10 min, Mean + SD, n = 10) was 1.9±3.0 and the “Number of pain responses 15 min” value (formalin pain model; SD rats, 10 mg/kg i.v. immediately before 5% formalin, 15 min, Mean + SD, n = 10) was 4.1±4.4. For the same compound, the “Number of pain responses 30 min” value (formalin pain model; SD rats, 10 mg/kg i.v. immediately before 5% formalin, 30 min, Mean + SD, n = 10) was 12.8±6.7, the “Number of pain responses 40 min” value (formalin pain model; SD rats, 10 mg/kg i.v. immediately before 5% formalin, 40 min, Mean + SD, n = 10) was 13.2±8.1 and the “Number of pain responses 50 min” value (formalin pain model; SD rats, 10 mg/kg i.v. immediately before 5% formalin, 50 min, Mean + SD, n = 10) was 8.6±3.6. For the same compound, the “Number of pain responses 60 min” value (formalin pain model; SD rats, 10 mg/kg i.v. immediately before 5% formalin, 60 min, Mean + SD, n = 10) was 9.3±5.1 and the “analgesic activity in the first and second phases” value (formalin pain model; rat formalin pain model, first phase immediately after injection, second phase about 15-20 min after) was “superior analgesic effects in the first and second phases, respectively”.
Work on `COc1c([C@@H]2C[C@](C)(C(F)(F)F)S[C@H]2C(=O)Nc2ccc(F)c(OS(N)(=O)=O)c2)ccc(F)c1F` [a-32-A] yielded an IC50 (Nav1.8 channels) of 0.1 nM, an AUC(0-inf) ([2]; Oral administration, 10 mg/kg) of 22.9 µg·h/mL and an AUC(0-inf) ([2]; iv, Injection (i.v.), 2 mg/kg) of 7.39 µg·h/mL.
`COc1c([C@@H]2C[C@](C)(C(F)(F)F)S[C@H]2C(=O)Nc2nn(S(=O)(=O)C(F)(F)F)cc2C)ccc(F)c1F` [a-43-A, (2R,3S,5R)-3-(3,4-difluoro-2-methoxyphenyl)-5-methyl-N-(4-methyl-1-((trifluoromethyl)sulfonyl)-1H-pyrazol-3-yl)-5-(trifluoromethane)tetrahydrothiophene-2-carboxamide] gave an inhibition at 0.001 µM (Nav1.8 channels) of 40.1%.
With `CCS(=O)(=O)Nc1cccc(NC(=O)[C@@H]2S[C@@](C)(C(F)(F)F)C[C@H]2c2ccc(F)c(F)c2OC)c1` [a-44-A, (2R,3S,5R)-3-(3,4-difluoro-2-methoxyphenyl)-N-(3-(ethylsulfonamido)phenyl)-5-methyl-5-(trifluoromethyl)tetrahydrothiophene-2-carboxamide] the inhibition at 0.001 µM (Nav1.8 channels) was 49.9%.
Compound `COc1c([C@@H]2C[C@](C)(C(F)(F)F)S[C@H]2C(=O)Nc2cccc(S(=O)(=O)NCCN)c2)ccc(F)c1F` [a-45-A, (2R,3S,5R)-N-(3-(N-(2-aminoethyl)sulfamoyl)phenyl)-3-(3,4-difluoro-2-methoxyphenyl)-5-methyl-5-(trifluoromethyl)tetrahydrothiophene-2-carboxamide] has an IC50 (Nav1.8 channels) of 0.024 nM.
With `COc1c([C@@H]2C[C@](C)(C(F)(F)F)S[C@H]2C(=O)N(O)c2ccnc(-c3ncon3)c2)ccc(F)c1F` [a-46-A, (2R,3S,5R)-N-(2-(1,2,4-oxadiazol-3-yl)pyridin-4-yl)-3-(3,4-difluoro-2-methoxyphenyl)-N-hydroxy-5-methyl-5-(trifluoromethyl)tetrahydrothiophene-2-carboxamide] the inhibition at 0.001 µM (Nav1.8 channels) was 46.7%.
Work on `COc1c([C@@H]2C[C@](C)(C(F)(F)F)S[C@H]2C(=O)Nc2ccnc(-c3ncon3)c2)ccc(F)c1F` [a-48-A, (2R,3S,5R)-3-(3,4-difluoro-2-methoxy-phenyl)-5-methyl-N-[2-(1,2,4-oxadiazol-3-yl)-4-pyridyl]-5-(trifluoromethyl)tetrahydrothiophene-2-carboxamide] yielded an inhibition at 0.001 µM (Nav1.8 channels) of 71.9%.
Compound `COc1c([C@@H]2C[C@](C)(C(F)(F)F)S[C@H]2C(=O)Nc2ccnc(SCN)c2)ccc(F)c1F` [a-51-A, (2R,3S,5R)-N-(2-aminomethylthio-4-pyridyl)-3-(3,4-difluoro-2-methoxy-phenyl)-5-methyl-5-(trifluoromethyl)tetrahydrothiophene-2-carboxamide] has an inhibition at 0.001 µM (Nav1.8 channels) of 88.5%.
For `COc1c([C@@H]2C[C@](C)(C(F)(F)F)S[C@H]2C(=O)Nc2cccc(NS(=O)(=O)CC(C)N)c2)ccc(F)c1F` (stereo partly drawn) [a-56-A, (2R,3S,5R)-N-(3-((2-aminopropyl)sulfonamido)phenyl)-3-(3,4-difluoro-2-methoxyphenyl)-5-methyl-5-(trifluoromethyl)tetrahydrothiophene-2-carboxamide], the inhibition at 0.001 µM (Nav1.8 channels) was 66.4%.
`COc1c([C@@H]2C[C@](C)(C(F)(F)F)S[C@H]2C(=O)Nc2ccnc(S(=O)(=O)N=[N+]=[N-])c2)ccc(F)c1F` [a-66-A, 4-((2R,3S,5R)-3-(3,4-difluoro-2-methoxyphenyl)-5-methyl-5-(trifluoromethyl)tetrahydrothiophene-2-carboxamido)pyridine-2-sulfonyl azide] gave an IC50 (Nav1.8 channels) of 0.26 nM.
In the case of `COc1c([C@@H]2C[C@](C)(C(F)(F)F)S[C@H]2C(=O)Nc2ccnc(C3(C#N)CC3)c2)ccc(F)c1F` [a-73-A, (2R,3S,5R)-N-(2-(1-cyanocyclopropyl)pyridin-4-yl)-3-(3,4-difluoro-2-methoxyphenyl)-5-methyl-5-(trifluoromethyl)tetrahydrothiophene-2-carboxamide], the inhibition at 0.001 µM (Nav1.8 channels) is reported as 58.8%.
For `COc1c(C2CC(C)(C(F)(F)F)SC2C(=O)Nc2ccc(NC(=O)CN=[N+]=[N-])cc2)ccc(F)c1F` (stereo not shown) [a-75-A, N-(4-(2-azidoacetamido)phenyl)-3-(3,4-difluoro-2-methoxyphenyl)-5-methyl-5-(trifluoromethyl)tetrahydrothiophene-2-carboxamide], the inhibition at 0.001 µM (Nav1.8 channels) was 55.2%.
`COc1c([C@@H]2C[C@](C)(C(F)(F)F)S[C@H]2C(=O)Nc2ccnc(SC#N)c2)ccc(F)c1F` [a-80-A, (2R,3S,5R)-3-(3,4-difluoro-2-methoxyphenyl)-5-methyl-N-(2-thiocyanatopyridin-4-yl)-5-(trifluoromethyl)tetrahydrothiophene-2-carboxamide] showed an IC50 (Nav1.8 channels) of 0.19 nM.
For `COc1c([C@@H]2C[C@](C)(C(F)(F)F)S[C@H]2C(=O)Nc2ccc(F)c(C=O)c2)ccc(F)c1F` [a-84-A, (2R,3S,5R)-3-(3,4-difluoro-2-methoxyphenyl)-N-(4-fluoro-3-formylphenyl)-5-methyl-5-(trifluoromethyl)tetrahydrothiophene-2-carboxamide], the inhibition at 0.001 µM (Nav1.8 channels) was 69.3%.
For `COc1c([C@@H]2C[C@](C)(C(F)(F)F)S[C@H]2C(=O)Nc2ccnc(C(=O)NO)c2)ccc(F)c1F` [a-87-A, 4-((2R,3S,5R)-3-(3,4-difluoro-2-methoxyphenyl)-5-methyl-5-(trifluoromethyl)tetrahydrothiophene-2-carboxamido)-N-hydroxypicolinamide], the inhibition at 0.001 µM (Nav1.8 channels) was 47.7%.
`COc1c([C@@H]2C[C@](C)(C(F)(F)F)S[C@H]2C(=O)Nc2ccc(F)c(/C=C(\C#N)C(N)=O)c2)ccc(F)c1F` [a-89-A, (2R,3S,5R)-N-(3-((E)-3-amino-2-cyano-3-oxopropen-1-yl)-4-fluorophenyl)-3-(3,4-difluoro-2-methoxyphenyl)-5-methyl-5-(trifluoromethyl)tetrahydrothiophene-2-carboxamide] gave an inhibition at 0.001 µM (Nav1.8 channels) of 51.5%.
